Publication PMC7297445, “Pharmacokinetic/Pharmacodynamic Determination and Preclinical Pharmacokinetics of the β-Lactamase Inhibitor ETX1317 and Its Orally Available Prodrug ETX0282” (ACS Infectious Diseases, 2020)
Entries after “also recorded” stand apart in the source; their conditions may differ.

Columns and labels:
[1] = test system: E. coli strain (ATCC 25922); assay: Murine neutropenic thigh model, CPDP dose range study; type: in vivo, mouse; details: 50 mg/kg oral q6h, administered alone
Source text: All in vivo efficacy studies were supported with PK of ETX1317 and CPD following oral administration of ETX0282 and CPDP. For the purposes of understanding the exposure-PD response relationship, total systemic concentrations of ETX1317 and cefpodoxime were normalized to unbound drug levels after accounting for protein binding with percent unbound estimates of 93% and 66%, respectively, in mouse plasma (Table S2). An in vivo dose range study with CPDP administered alone against a susceptible E. coli strain (ATCC 25922, CPD MIC = 0.5 μg/mL) was completed initially in a murine neutropenic thigh model to confirm its PK/PD target. In this study a 50 mg/kg oral dose of CPDP administered q6h was consistent with achieving 1–log kill over 24 h. […] Oral exposure was generally dose proportional to 50 mg/kg; however, it became less than dose proportional at ≥200 mg/kg.
In vivo neutropenic infection models in the mouse were conducted as previously described.[48],[49] All procedures were performed to Entasis approved IACUC policies and guidelines as well as OLAW standards. Briefly, Female CD-1 mice (20–22 g, Charles River Laboratories) were acclimated for 5 days prior to start of study. Animals were housed 3 per cage with free access to food and water. […]

E. coli NMC101 = assay: Murine neutropenic thigh infection model; type: in vivo, mouse
Protocol: (§1) To further understand whether this in vitro activity translated to in vivo efficacy, an additional neutropenic thigh study was conducted in mice with increasing doses of ETX0282 alone vs E. coli NMC101 (ETX1317 MICBLI = 1 μg/mL) and ARC4419 (ETX1317 MICBLI = 0.25 μg/mL). […] Despite the significant exposure of ETX1317, a 200 mg/kg q6h dose of ETX0282 alone was ineffective for both strains (Table 6).
(§2) In vivo neutropenic infection models in the mouse were conducted as previously described.[48],[49] All procedures were performed to Entasis approved IACUC policies and guidelines as well as OLAW standards. Briefly, Female CD-1 mice (20–22 g, Charles River Laboratories) were acclimated for 5 days prior to start of study. Animals were housed 3 per cage with free access to food and water. Mice were rendered neutropenic via two doses of cyclophosphamide on days −4 and −1 with 150 mg/kg and 100 mg/kg delivered intraperitoneally in a dose volume of 10 mL/kg, respectively.[48]
(§3) Enterobacteriaceae isolates ARC2687, ARC4488, ARC5118, NMC101, and ARC4419 were prepared for infection from an overnight plate culture. A portion of the plate was resuspended in sterile saline and adjusted to an OD of 0.1 at 625 nm. The adjusted bacterial suspension was further diluted to target an infecting inoculum of approximately 5.0 × 10^6–1.0 × 10^7 CFU/mouse. The actual inoculum size varied between 5.5 × 10^6–1.6 × 10^6 CFU/thigh and administered via intramuscular injection of (100 μL). Plate counts of the inoculum were performed to confirm inoculum concentration and treatment was initiated 2 h after bacterial challenge.
(§4) ETX0282 and CPDP were formulated in 0.5% HPMC/0.1% Tween 80 suspension. meropenem (utilized as a positive control) was solubilized in water for injection. All studies utilized a meropenem dosed at 600 mg/kg q6h subcutaneously as positive control against meropenem sensitive isolates (MIC ≤ 2 μg/mL) and as a negative control against meropenem resistant isolates. For dose arms utilizing a combination of ETX0282 and CPDP, both agents were reconstituted in the same vehicle. All dose concentrations were adjusted to deliver targeted mg/kg doses within a dose volume of 10 mL/kg. Formulation potency was verified by LC/MS/MS.
(§5) ETX0282 and CPDP were administered via q6h dose intervals in order to achieve targeted unbound exposures. At 24 h post initiation of therapy, animals were euthanized, tissue samples aseptically collected and homogenized. Bacterial colony enumeration of tissue homogenate was performed by serial dilution on TSA plates which were incubated overnight at 35 °C prior to colony (CFU) counting.

E. coli ARC4419 = assay: Murine neutropenic thigh infection model; type: in vivo, mouse
Protocol: as §1, §2, §3, §4, §5

K. pneumoniae ARC4488 = assay: Murine neutropenic thigh infection model; type: in vivo, mouse; details: 50 mg/kg p.o./q6h
Protocol: as §2, §3, §4, §5

K. pneumoniae ARC5118 = assay: Murine neutropenic thigh infection model; type: in vivo, mouse; details: 50 mg/kg p.o./q6h
Protocol: as §2, §3, §4, §5

E. coli ARC2687 = assay: Murine neutropenic thigh infection model; type: in vivo, mouse
Protocol: as §2, §3, §4, §5

[2] = Mouse oral pharmacokinetics (satellite infected animals); type: in vivo; details: after oral administration in mice
[3] = Human PK prediction (allometric scaling); details: based upon non-clinical PK data
Source text: The methodology utilized for prediction of human PK of ETX1317 was consistent with methods used in support of similar chemotypes such as avibactam and ETX2514.[43] Human predictions for volume of distribution (Vd,ss) and clearance (CL) were within 2-fold of observed mean data obtained in Phase 1 studies, with renal clearance as the predominant clearance mechanism.[44],[45] Pharmacokinetic and excretion data from rats, dogs, and monkeys were used collectively for the projection of ETX1317 PK. Liver S9 incubations were also performed across all species (including human) to confirm consistent conversion of ETX0282 to ETX1317 at projected dose levels of ETX0282.[42] Human PK prediction of ETX1317 was completed using single species allometry for volume of distribution from dog PK and dog and monkey single species scaling using liver blood flow to predict non-renal clearance (CLNR).[46] […] While urinary excretion of ETX1317 was lower in dogs relative to monkeys and rats, human renal clearance (CLR) was predicted using dog-human renal correlation,[47] as this method has been highly predictive for compounds that are generally eliminated via renal excretion. The elimination half-life was estimated based upon the combined use of predicted parameters for clearance and volume of distribution, where T1/2 = ln 2*Vd,ss/CLtotal. Allometric scaling predicted human Vd,ss of 0.35 L/kg.
(§6) Based upon the non-clinical PK data, a range of 60–80% bioavailability and a moderate absorption rate of 0.5–1.0 h^–1 have been considered for humans. In consideration of these predicted parameters, mean percent fT > CT of 1 μg/mL (2× MIC of 0.5 μg/mL) estimates for a 500 mg ETX1317 equiv q12h dose of ETX0282 are summarized in Table S3.

[4] = Low-dose oral PK of ETX0282 across rats, dogs and monkeys; type: in vivo; details: oral 1 to 10 mg/kg
Protocol: Intravenous and oral pharmacokinetics of ETX1317 and ETX0282 in preclinical species are summarized in Table 7 and Table S1, respectively. Time vs concentration profiles are depicted graphically in Figure S1.
as §6
Intravenous pharmacokinetics of ETX1317 investigated in jugular vein cannulated male Sprague–Dawley rats (Charles River Laboratories, n = 3/route) at a dose of 10 mg/kg formulated in 0.9% saline. Oral pharmacokinetics of ETX0282 was evaluated at a 10 mg/kg equivalent dose of ETX1317 formulated in 25:75 PEG 400:WFI. The pH of each formulation was verified to fall within a range of 4–7 and were confirmed to be in solution prior to dosing. Potency was verified by LC/MS/MS. Dose volumes were 5 and 10 mL/kg for ETX1317(i.v.) and ETX0282(p.o.), respectively for rats. In both dog (male, 3/route) and monkey (male, 3/route) studies, i.v. and p.o. doses were formulated on 25:75 PEG 400:WFI (pH ∼5) and administered at a dose of ∼1 mg/kg. Dose volume was 1 mL/kg for both routes in dogs and monkeys with the i.v. dose infused over 15 min. […]

[5] = parameters: method as in PMID 32658473; details: across all species, including humans; cited from earlier work
[6] = parameters: method as in PMID 9950279; details: oral; PEPT1 substrate; cited from earlier work
[7] = ETX0282 alone 200 mg/kg q6h, combination 50:50 mg/kg q6h

SMILES | efficacy over 24 h [1] | log10 CFU/g thigh change 24 h post therapy initiation (E. coli NMC101; 50 mg/kg p.o./q6h) | log10 CFU/g thigh change 24 h post therapy initiation (E. coli ARC4419; 50 mg/kg p.o./q6h) | log10 CFU/g thigh change 24 h post therapy initiation (K. pneumoniae ARC4488) | log10 CFU/g thigh change 24 h post therapy initiation (K. pneumoniae ARC5118) | log10 CFU/g thigh change 24 h post therapy initiation (E. coli ARC2687; 50 mg/kg p.o./q6h) | systemic concentrations of intact prodrug [2] | absorption rate considered for humans [3] | log10 CFU/g thigh change 24 h post therapy initiation (E. coli NMC101; 10 mg/kg p.o./q6h) | log10 CFU/g thigh change 24 h post therapy initiation (E. coli NMC101; 200 mg/kg p.o./q6h) | in vivo efficacy in words (E. coli NMC101; [7]) | log10 CFU/g thigh change 24 h post therapy initiation (E. coli ARC4419; 10 mg/kg p.o./q6h) | log10 CFU/g thigh change 24 h post therapy initiation (E. coli ARC4419; 200 mg/kg p.o./q6h) | in vivo efficacy in words (E. coli ARC4419; [7]) | log10 CFU/g thigh change 24 h post therapy initiation (E. coli ARC2687; 10 mg/kg p.o./q6h (footnote c)) | circulating levels of intact prodrug [4] | conversion of ETX0282 to ETX1317 in liver S9 [5] | bioavailability [6]
COCC1=C(C(=O)OC(C)OC(=O)OC(C)C)N2C(=O)[C@@H](NC(=O)/C(=N\OC)c3csc(N)n3)[C@H]2SC1 (stereo partly shown) [CPDP, cefpodoxime proxetil] | 1–log kill | +3.39 log10 CFU/g | +2.23 log10 CFU/g | +3.58 log10 CFU/g | +2.66 log10 CFU/g | +3.61 log10 CFU/g | No concentrations of intact CPDP and ETX0282 were observed systemically |  |  |  |  |  |  |  |  |  |  | 
CC1=C[C@@H](C(N)=O)N2C[C@@H]1N(O[C@H](F)C(=O)OC(C)C)C2=O [ETX0282] |  | +1.83 log10 CFU/g | +1.06 log10 CFU/g |  | +1.31 log10 CFU/g |  | No concentrations of intact CPDP and ETX0282 were observed systemically | 0.5–1.0 h^–1 | +2.10 log10 CFU/g | +1.39 log10 CFU/g | ineffective | +1.41 log10 CFU/g | +1.07 log10 CFU/g | ineffective | +2.93 ^c log10 CFU/g | minimal to no levels of ETX0282 | efficient conversion; also recorded: Extensive and quantitative conversion | 
CC1(C)S[C@@H]2[C@H](NC(=O)[C@H](N)c3ccc(O)cc3)C(=O)N2[C@H]1C(=O)O [amoxicillin] |  |  |  |  |  |  |  |  |  |  |  |  |  |  |  |  |  | > 70%
